“Also recorded” adds a separate entry of the source. Where two headings read alike, the source gives them in different places. Values belong to the compound of their own block, whether it stands above or below them.
Experiments:
[1] = system: Panc02.13 cells expressing YAPS6A construct; assay: Kinetic cell growth assay, Panc02.13 cells expressing YAPS6A; type: cell-based, human; settings: YAPS6A construct
Experimental: (§1) Panc02.13 cells were used to express YAPS6A (or vector controls) under sparse and dense cultures. Expression was confirmed by confocal microscopy (data not shown). Suppression of the Hippo pathway by expression of non-phospho, active form of YAP (YAPS6A) sensitized pancreatic cancer cells to gemcitabine and 5-FU (FIGS. 6 and 7). Apoptosis was measured by immunobloting with cleaved caspases 3/7 or PARP. Blots were also stained with anti-β-actin for loading control. The effect of Hippo pathway suppression on gemcitabine and 5-FU senstitization was maintained in 3D spheroid culture (FIG. 8). The effects of eleven cytotoxic drugs on the growth of Panc02.13 cells expressing vector only or YAPS6A construct grown under low or high densities were determined (Table 1).
(§2) The effect of gemcitabine on pancreatic cancer cell growth was studied using a kinetic cell growth assay. Pancreatic cancer cells were plated on 96-well plates (Essen ImageLock, Essen Instruments, MI, US) at varying densities (2-4×10^3 for low density or 15-20×10^3 for high density experiments). Small molecule inhibitors at different doses were added 24 hours after plating and cell confluence was monitored with Incucyte Live-Cell Imaging System and software (Essen Instruments). Confluence was observed every hour for 48-144h or until the control (DMSO only) samples reached 100% confluence.
Cell lines (Panc02.13, Panc10.05 or Miapaca2) were transfected with YAPS6A constructs (Addgene) using Lipofectamine™ (Invitrogen, Carlsbad, Calif.) following the manufacturer's instructions and 48 hour post-transfection selected in 5-10 μg/ml Blasticidin (InvivoGen, San Diego, Calif.). The clones screened for YAPS6A expression by Western blot. Stable cell lines were maintained in complete medium and 5 μg/ml Blasticidin.
as §2, with “Kinetic Cell growth assay. The” for “The”, “(2-4X103” for “(2-4×10^3”, “15-20X103” for “15-20×10^3”, “Incucyte™” for “Incucyte”

[2] = system: Panc02.13 cells expressing vector only (02.13-WT); assay: Kinetic cell growth assay, Panc02.13 cells expressing vector only; type: cell-based, human
Experimental: as §1, §2
as §2, with “Kinetic Cell growth assay. The” for “The”, “(2-4X103” for “(2-4×10^3”, “15-20X103” for “15-20×10^3”, “Incucyte™” for “Incucyte”

[3] = system: patient-derived xenograft (PDX) models; assay: Patient-derived xenograft (PDX) models, tumor growth inhibition; type: in vivo, mouse; settings: PDX models
Source text: An alternative to an endogenous mouse models for capturing effects of the tumor environment are patient-derived xenograft (PDX) models. […] At the cellular level, PDX models also preserve the intra-tumoral heterogeneity, as well as the molecular characteristics of the original cancer, including copy number variants, single-nucleotide polymorphisms, and gene expression profiles (Choi et al., 2014; DeRose et al., 2011). […] When patient-derived xenograft PDX models were used to assess whether YAP activation sensitizes solid tumors to gemcitabine significant effects were found. The studies were performed in the following manner: Tumor fragments (around 64 mm^3) were implanted into the flanks of recipient mice and tumor dimensions recorded with digital calipers. Once tumor implants reached a volume of approximately 200 mm3, dosing with gemcitabine (or vehicle control) began. At the completion of the study completion, the percent tumor growth inhibition (% TGI) was calculated for gemcitabine (G) and the vehicle control (C) using initial (i) and final (f) tumor measurements by the formula: % TGI=[1−(Gf−Gi)/(Cf−Ci)]x100.
Patient-derived xenograft (PDX) models. PDX models were established by Champions Oncology (Baltimore, Md.) as described previously (Khor et al., 2015). Drug response to 20 PDX models was obtained from Champions TumorGraft® Database (available on the world wide web at database.championsoncology.com/).
Immunohistochemistry. Human primary tumor tissue slides were obtained from Champions Oncology (Baltimore, Md.). Immunohistochemistry using anti YAP1 antibody (Abcam Cat # ab52771) was performed as previously described (Shi et al., 1999). For negative controls, primary antibody was omitted. The intensity of YAP staining was assessed by an independent pathologist using a four-grade scale: “0” is negative. “0.5” is borderline staining with no significance. “1” is weak staining. “1.5” is weak staining with foci of moderate staining. “2” is moderate staining. […] YAP scoring index was calculated based on staining intensity * % of positive target cells.

[4] = system: Panc02.13 cells expressing the YAPS6A mutant; assay: 3D spheroid growth assay, Panc02.13 cells expressing YAPS6A; type: cell-based, human; settings: YAP activity increased
ABCG2 = target: T1, ABCG2 (Homo sapiens, UniProt Q9UNQ0); settings: Cusatis and Sparreboom, 2008; cited from earlier work
T1 sequence (Q9UNQ0 1-655): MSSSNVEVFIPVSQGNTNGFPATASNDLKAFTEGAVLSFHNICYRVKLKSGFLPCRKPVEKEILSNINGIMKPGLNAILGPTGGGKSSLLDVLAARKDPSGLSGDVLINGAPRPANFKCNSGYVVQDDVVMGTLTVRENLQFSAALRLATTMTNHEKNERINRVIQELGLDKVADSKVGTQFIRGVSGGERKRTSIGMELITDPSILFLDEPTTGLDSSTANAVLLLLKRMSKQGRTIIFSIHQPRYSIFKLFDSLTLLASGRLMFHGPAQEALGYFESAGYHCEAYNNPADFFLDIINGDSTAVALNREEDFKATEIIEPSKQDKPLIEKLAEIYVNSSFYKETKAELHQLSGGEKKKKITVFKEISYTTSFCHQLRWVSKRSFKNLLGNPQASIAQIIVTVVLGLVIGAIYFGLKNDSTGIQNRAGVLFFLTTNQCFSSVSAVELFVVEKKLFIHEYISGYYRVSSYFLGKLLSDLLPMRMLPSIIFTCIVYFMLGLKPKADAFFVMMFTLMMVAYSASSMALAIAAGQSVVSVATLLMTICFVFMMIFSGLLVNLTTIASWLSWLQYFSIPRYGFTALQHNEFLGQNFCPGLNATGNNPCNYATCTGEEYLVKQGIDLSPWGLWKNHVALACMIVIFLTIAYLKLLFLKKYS

Panc02.13 cells = assay: 3D spheroid growth assay, Panc02.13 (GFP/parental) cells; settings: Hippo-YAP pathway active
[5] = system: pancreatic cancer cell lines; assay: Kinetic cell growth assay, panel of pancreatic cancer cell lines; type: cell-based, human
Experimental: as §2
FIG. 20A illustrates the kinetic cell growth assay to determine the effect of gemcitabine in a panel of pancreatic cancer cell lines. Cells are plated at low crowding conditions (10-25% confluence) and 24 hours later exposed to gemcitabine in a dose-dependent manner. They are imaged every 1-3 hours until control (vehicle) treated cells reach 100% confluence. This assay is not confounded by the fact that the time required for each cell line to reach 100% confluence may be very different (as the cell lines have different doubling times). A dose response effect of gemcitabine on cell growth for 16 pancreatic cancer cell lines is shown in FIGS. 20B, 3, 31A-31C and 28, where the range of previous studies is also shown. […] Similar responses to gemcitabine were found in liver cancer cell lines (Huh7 and FOCUS) and untransformed (HEK293) cell lines (FIGS. 3, 31A-31C).
as §2, with “Kinetic Cell growth assay. The” for “The”, “(2-4X103” for “(2-4×10^3”, “15-20X103” for “15-20×10^3”, “Incucyte™” for “Incucyte”

[6] = Homo sapiens, high density, read-out: High density (EC50, nM) 02.13-YAPS6A
[7] = Homo sapiens, low density, read-out: Low density (EC50, nM) 02.13-YAPS6A
[8] = Homo sapiens, high density, read-out: High density (EC50, nM) 02.13-WT
[9] = Homo sapiens, low density, read-out: Low density (EC50, nM) 02.13-WT

SMILES: N.N.[Cl][Pt][Cl] [Cisplatin]
- EC50 ([1]; high density, read-out: High density (EC50, nM) 02.13-YAPS6A): > 10000 nM
- EC50 ([1]; low density, read-out: Low density (EC50, nM) 02.13-YAPS6A): > 10000 nM
- EC50 ([2]; high density, read-out: High density (EC50, nM) 02.13-WT): > 10000 nM
- EC50 ([2]; low density, read-out: Low density (EC50, nM) 02.13-WT): > 10000 nM
- % TGI dependence on YAP activity [3]: not affected by YAP activity

- EC50 [1, 6]: 942 nM
- EC50 [1, 7]: 383 nM
- EC50 [2, 8]: 2600 nM
- EC50 [2, 9]: 386 nM
SMILES: COc1cc([C@@H]2c3cc4c(cc3[C@@H](O[C@@H]3O[C@@H]5CO[C@@H](C)O[C@H]5[C@H](O)[C@H]3O)[C@H]3COC(=O)[C@H]23)OCO4)cc(OC)c1O [Etoposide]
- Efficacy in inhibiting cell growth when the Hippo pathway was inhibited [4]: particularly significant inhibitory activity
- Efficacy in inhibiting cell growth when the Hippo pathway was inhibited ([4]; listed as etopiside): increased efficacy in inhibiting cell growth
- Substrate of ABCG2 (ABCG2): substrates of ABCG2

SMILES: CC[C@@]1(O)C(=O)OCc2c1cc1n(c2=O)Cc2cc3c(CN(C)C)c(O)ccc3nc2-1 [topotecan]
- Efficacy in inhibiting cell growth when the Hippo pathway was inhibited [4]: increased efficacy in inhibiting cell growth
- Substrate of ABCG2 (ABCG2): substrates of ABCG2

SMILES: COc1cccc2c1C(=O)c1c(O)c3c(c(O)c1C2=O)C[C@@](O)(C(=O)CO)C[C@@H]3O[C@H]1C[C@H](N)[C@@H](O)[C@H](C)O1 [epirubicin]
- Efficacy in inhibiting cell growth when the Hippo pathway was not inhibited (Panc02.13 cells): efficacious in inhibiting cell growth
- Efficacy in inhibiting cell growth when the Hippo pathway was inhibited [4]: increased efficacy in inhibiting cell growth
- Substrate of ABCG2 (ABCG2): substrates of ABCG2

SMILES: N.N.O=C([O-])C1(C(=O)[O-])CCC1.[Pt+2] [carboplatin]
- % TGI dependence on YAP activity [3]: not affected by YAP activity

- EC50 [1, 6]: 133 nM
- EC50 [1, 7]: 68 nM
- EC50 [2, 8]: 386 nM
- EC50 [2, 9]: 35 nM
SMILES: COc1cccc2c1C(=O)c1c(O)c3c(c(O)c1C2=O)C[C@@](O)(C(=O)CO)C[C@@H]3O[C@H]1C[C@H](N)[C@H](O)[C@H](C)O1 [Doxorubicin]
- Dependence of cellular response on cell crowding ([5]; seven PDAC cell lines, threshold >100 fold difference in EC50): dependent on cell crowding
- Density dependence of efficacy ([5]; seven pancreatic cancer cell lines, sparse and dense conditions): density-dependent
- Efficacy in inhibiting cell growth when the Hippo pathway was not inhibited (Panc02.13 cells): efficacious in inhibiting cell growth
- Efficacy in inhibiting cell growth when the Hippo pathway was inhibited [4]: increased efficacy in inhibiting cell growth

SMILES: COc1cc([C@@H]2c3cc4c(cc3[C@@H](O[C@@H]3O[C@@H]5CO[C@@H](c6cccs6)O[C@H]5[C@H](O)[C@H]3O)[C@H]3COC(=O)[C@H]23)OCO4)cc(OC)c1O [teniposide]
- Efficacy in inhibiting cell growth when the Hippo pathway was inhibited [4]: increased efficacy in inhibiting cell growth; also recorded: particularly significant inhibitory activity
- Substrate of ABCG2 (ABCG2): substrates of ABCG2

SMILES: O=C1c2c(O)ccc(O)c2C(=O)c2c(NCCNCCO)ccc(NCCNCCO)c21 [mitoxantrone]
- Efficacy in inhibiting cell growth when the Hippo pathway was inhibited [4]: increased efficacy in inhibiting cell growth; also recorded: particularly significant inhibitory activity
- Substrate of ABCG2 (ABCG2): substrates of ABCG2

SMILES: Nc1nc(Cl)nc2c1ncn2[C@H]1C[C@H](O)[C@@H](CO)O1 [cladribine]
- Efficacy in inhibiting cell growth when the Hippo pathway was inhibited [4]: increased efficacy in inhibiting cell growth; also recorded: particularly significant inhibitory activity
- Substrate of ABCG2 (ABCG2): substrates of ABCG2

SMILES: CN(Cc1cnc2nc(N)nc(N)c2n1)c1ccc(C(=O)N[C@@H](CCC(=O)O)C(=O)O)cc1 [methotrexate]
- Efficacy in inhibiting cell growth when the Hippo pathway was inhibited [4]: increased efficacy in inhibiting cell growth; also recorded: particularly significant inhibitory activity
- Substrate of ABCG2 (ABCG2): substrates of ABCG2

From US20200216906A1, “METHODS AND COMPOSITIONS RELATING TO THE DIAGNOSIS AND TREATMENT OF CANCER” (PRESIDENT AND FELLOWS OF HARVARD COLLEGE, priority 2015, published 2020)
